This is an account of results in patent US7115665B1, “Inhibitors of endo-exonuclease activity for treating cancer” (Onocozyme Pharma, Inc., priority 2000, dated 2006).

In data set [1] the test system is MCF-7 breast cancer cells. The settings on record: read-out: LC50; MCF-7, 2 day exposure.
The test system of a further data set is H460 NSCLC cells. Description: cells. The settings on record: read-out: LC50.
Data set [2] relates to HT29 colon cancer cells. The following applies: read-out: LC50; HT29, 2 day exposure.
The next data set deals with human endo-exonuclease. Description: Endo-exonuclease nuclease activity inhibition assay. It counts as biochemical. Here is the method: The cultured cells were detached with trypsin-EDTA and the cell suspensions were centrifuged at 4° C. with a force of 700 g for 10 minutes. The cell pellets were washed twice with cold phosphate buffered saline (PBS). The cells were then resuspended and sonicated in 20 mM Tris-HCl, pH 7.5, containing 5 mM EDTA and 1 mM PMSF (buffer A). The resulting cell lysis suspensions were centrifuged at 4° C. at 10,000 g for 15 min. […] After washing extensively with buffer A, (i.e. until the A280 of the eluates were zero), the column was then eluted with buffer A containing 3.5 M MgCl2 to elute the endo-exonuclease. The eluted endo-exonuclease was dialyzed extensively against buffer A with at least two changes of buffer and one change of distilled water. The endo-exonuclease was then concentrated by lyophilization.
One unit of activity was defined as the amount of deoxyribonuclease that renders 1 μg of DNA acid-soluble in 30 min at 37° C. For the inhibition assay with the drugs, the drugs were added to the endo-exonuclease prior to the start of the nuclease reaction.

The next data set has as its system H520 NSCLC cells. Description: cells. The following applies: read-out: LC50.
For a further data set, the system named is H661 NSCLC cells. The data set can be described thus: cells. The settings on record: read-out: LC50.
Data set [3] has as its system MCF-7 breast cancer cells. Description: cells. The settings on record: Homo sapiens, read-out: LC50.
Data set [4] deals with HT29 colon cancer cells. Description: cells. The following applies: Homo sapiens, read-out: LC50.
Data set [5] concerns Lewis lung carcinoma (M47) primary tumour. On the procedure:
Lewis Lung Carcinoma Cell Line and Cell Culture: The Lewis lung carcinoma clone, M47, is a metastatic model. […] For tumour induction, cells were washed three times with phosphate buffer solution. They were then re-suspended at a dilution of 1×10^6 cells/0.1 ml. Only cells where viability was >95% were used for in vivo studies.
The mouse strain used in this study was C57BL/10. After one-week of acclimatization, cells were transplanted into the mice subcutaneously, as a suspension of tumour cells. All animals were inoculated at the same site.
To measure the effect of drugs on the primary tumour, drug solutions were administered by intraperitoneal (ip) injection every two days. Animals were subjected, on a daily basis, to general examination. Tumour growth was monitored over time. To determine the effect of drugs on tumour metastasis, the tumours were allowed to reach a size of 0.5–1.0 cm^3. Mice were randomized into various groups and the drugs were then given by ip. At the end of each experiment, animals were sacrificed and autopsied. Tumours, organs or both were removed under sterile conditions. Tumours were weighed. Organs were examined for gross pathological changes and then fixed in formalin. Lungs were fixed in Bouin's fixative and lung surface metastases were counted using a stereomicroscope.
The Lewis lung carcinoma clone, M47, with a high metastatic potential to the lung was used. […] The cell used was confirmed to be free of mycoplasma. Cells were maintained in RPMI-1640 medium supplemented with 10% fetal bovine serum and 1% penicillin-streptomycin, under 5% CO2. Cells were then propagated and stocks of the same passages were established and stored in liquid nitrogen. Oncozyme studies were done with the same stock of cells and same passage number.
For tumour induction, cells were grown to 70% confluence in complete medium and then collected using trypsin-EDTA solution [0.05% trypsin 0.53 mM EDTA-4Na in HBSS without Ca++. Mg++, and NaHCO3; Celigro No. 25–052-Li]. Cells were then centrifuged and washed three times with phosphate buffer solution [D-PBS, Ca++ and Mg++free; Cellgro No. 21–031-LV], and resuspended at a dilution of 0.1 to 1×10^6 cells/0.1 ml. Viability was examined by trypan blue staining and only cells in which the viability was >95% were used for in vivo studies.
The mouse strain used in this study is C57BL/10 from Charles River Inc. Animals were housed 5 per cage and were fed a diet of animal chow and water ad libitum. After one week acclimatization, LLC cells were transplanted subcutaneously, as a suspension of tumour cells [2−5×10^5 viable cells per 0.1 ml], in the axillary region of the right flank. All animals were inoculated at the same site. Animals were subjected, on a daily basis, to general examination. Tumour growth was monitored every second or third day using calipers. Parameters measured were: tumour measured along the longest axis (length) and the perpendicular shortest axis (width) and the relative tumour volume (in cm^3) was calculated by the formula: [length (cm)×(width cm)^2] (approximately 10–15 days), mice were randomized into one of the following groups:
The conditions for this group were identical to the group used for the experiments on metastases with the exception that the primary tumour was not removed, and the animals were maintained until the tumours reached a large size that justified animal sacrifice, or the animals manifested a discomfort that justified their sacrifice (reduced mobility, severe respiratory symptoms, etc.).
Control animals were given the same volume of saline solution [0.9% sodium chloride]. The dose of each drug was normalized to body weight per animal.
The pentamidine and cisplatinum were injected by intraperitoneal injections. Adriamycin was injected intravenously.

Where two headings read alike, the source gives them in different places. Some results are limits rather than exact numbers.

Consider `CC(=O)NCC(=O)O.CC(=O)NCC(=O)O.N=C(N)c1ccc(N=NNc2ccc(C(=N)N)cc2)cc1` [Berenil, berenil], for which the CC50 in data set [1] is 3000 µM; with H460 NSCLC cells (H460, 2 day exposure) it was more than 4000 µM; in the data set with HT29 colon cancer cells [2], more than 4000 µM; with H520 NSCLC cells (H520, 2 day exposure), more than 4000 µM; in the data set with H661 NSCLC cells (H661, 2 day exposure), more than 4000 µM. In addition, the “Percent of Inhibition of endo-exonuclease activity” value with human endo-exonuclease (2 mM) was found to be 17%.
In the case of `Cn1cc(NC(=O)c2cc(NC(=O)c3cc(NC=O)cn3C)cn2C)cc1C(=O)NCCC(=N)N` [Distamycin A, distamycin A], the CC50 in data set [1] is 1520 µM; with H460 NSCLC cells (H460, 2 day exposure), more than 2000 µM; in the data set with HT29 colon cancer cells [2], more than 2000 µM; in the data set with H520 NSCLC cells (H520, 2 day exposure), more than 2000 µM; in the data set with H661 NSCLC cells (H661, 2 day exposure) it was more than 2000 µM. Moreover, the “Percent of Inhibition of endo-exonuclease activity” value in the data set on human endo-exonuclease (38 μM) worked out at 30%.
Regarding `COc1cc([C@@H]2c3cc4c(cc3[C@@H](O[C@@H]3O[C@@H]5CO[C@@H](C)O[C@H]5[C@H](O)[C@H]3O)[C@H]3COC(=O)[C@H]23)OCO4)cc(OC)c1O` [Etoposide, etoposide], the CC50 in data set [3] (MCF7, 48 h) was 1000 µM; in data set [3] (MCF7, 96 h) it was 1100 µM; with HT29 colon cancer cells [4] (HT-29, 48 h) it was 700 µM; in the data set on HT29 colon cancer cells [4] (HT-29, 96 h), 400 µM; in the data set on H460 NSCLC cells (Homo sapiens, NCI-H460, 48 h), more than 34000 µM; in the data set with H460 NSCLC cells (Homo sapiens, NCI-H460, 96 h) it was more than 34000 µM. The CC50 is more than 34000 µM in the data set with H520 NSCLC cells (Homo sapiens, NCI-H520, 48 h); more than 34000 µM in the data set with H520 NSCLC cells (Homo sapiens, NCI-H520, 96 h); 28000 µM in the data set on H661 NSCLC cells (Homo sapiens, NCI-H661, 48 h); 15600 µM in the data set on H661 NSCLC cells (Homo sapiens, NCI-H661, 96 h). Also, in the data set with human endo-exonuclease (50 μM), the “Percent of Inhibition of endo-exonuclease activity” value amounted to 0%.
`CO[C@@]12[C@H](COC(N)=O)C3=C(C(=O)C(C)=C(N)C3=O)N1C[C@@H]1N[C@@H]12` [Mitomycin C, mitomycin C]: the “Percent of Inhibition of endo-exonuclease activity” value in the data set with human endo-exonuclease (50 μM) was 0%.
For the molecule `COc1cccc2c1C(=O)c1c(O)c3c(c(O)c1C2=O)C[C@@](O)(C(=O)CO)C[C@@H]3O[C@H]1C[C@H](N)[C@H](O)[C@H](C)O1` [adriamycin], the Mortality in data set [5] (7.5 mg/Kg/iv, highest dose tested, FIG. 19) is 100%. Moreover, the “Antitumour effect on primary tumour” value in data set [5] (minimal dose of 5 mg/Kg iv) is on record as “potent antitumour effect”.
